Key:
[1] = biological target: T1, 5-HT1A Rezeptor gekoppelte Adenylatcyclase-Aktivität (Rattus norvegicus, UniProt P19327); test: Inhibition of forskolin-stimulated adenylate cyclase activity on hippocampal cell membranes; format: biochemical; conditions: Hippocampusmembranen der Ratte; 0,01 mM Forskolin; read-out: IC50-Wert, Inhibition der Forskolin-stimulierten Adenylatcyclase Aktivität
T1 construct: an hippocampalen Zellmembranen der Ratte; from tissue; host or cells: rat hippocampus membranes
T1 sequence (P19327 1-422): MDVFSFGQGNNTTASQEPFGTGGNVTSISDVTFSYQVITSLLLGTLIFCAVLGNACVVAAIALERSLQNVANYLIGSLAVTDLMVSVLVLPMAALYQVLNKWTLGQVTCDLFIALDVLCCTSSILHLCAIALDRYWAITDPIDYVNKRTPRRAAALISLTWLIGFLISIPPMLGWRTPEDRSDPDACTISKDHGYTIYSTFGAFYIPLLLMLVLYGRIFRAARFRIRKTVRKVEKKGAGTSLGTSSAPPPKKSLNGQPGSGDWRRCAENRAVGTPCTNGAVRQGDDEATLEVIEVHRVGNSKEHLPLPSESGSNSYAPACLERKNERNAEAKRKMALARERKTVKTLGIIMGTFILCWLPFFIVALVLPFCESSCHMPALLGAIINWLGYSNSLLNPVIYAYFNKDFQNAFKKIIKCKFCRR
Experimental: 5-HT1A Rezeptor gekoppelte Adenylatcyclase-Aktivität wurde an hippocampalen Zellmembranen der Ratte mit der Methodik von De Vivo und Maayani (J. Pharmacol. Exp. Ther. 1986, 238, 248-253.) gemessen.
Der Hippocampus wurde in 25 Volumen 0,3 M Sucroselösung (ergänzt mit 1mM EGTA, 5 mM EDTA, 5 mM Dithiothreitol und 20 mM Tris-HCl; pH 7,4 bei 25°C) in einem motorgetriebenen Potter-Elvehjem-Homogenisator zerkleinert. Das Homogenat wurde 10 min lang bei 1.000 g abzentrifugiert, danach der Überstand 10 min bei 39.000 g nochmals zentrifugiert. Das Pellet wurde im Homogenisationspuffer aufgenommen. Aliquots mit einem Proteingehalt von 1 mg/ml (gemessen nach Bradford Anal. Biochem. 1976, 72, 248-254.) wurden bei -140°C bis zur weiteren Verarbeitung aufbewahrt. Vor dem Assay wurde das aufgetaute Homogenat mit dem Potter-Elvehjem-Homogenisator nochmals homogenisiert. 50 µl Homogenat (mit ca. 50 µg Proteingehalt) wurden der vorgewärmten (5 min bei 30°C) Inkubationsmischung (100 mM NaCl, 2mM Magnesium Acetate 0,2 mM ATP, 1 mM cAMP, 0,01 mM GTP, 0,01 mM Forskolin, 80 mM Tris-HCl, 5 mM Creatine Phosphate, 0,8 U/µl Creatine Phosphokinase, 0,01 mM IBMX, 1 - 2 µCi α-[^32P]ATP) zupipettiert und so die Inkubation (10 min bei 30°C) gestartet.
Zur Messung der Adenylatcyclase-Aktivität wurde die Menge des gebildeten [^32P]cAMP nach Salomon (Adv. Cyclic Nucleotide Res. 1979, 10, 35-55.) bestimmt.

[2] = system: Rattenmodell der permanenten fokalen cerebralen Ischämie (MCA-O); test: Neuroprotection in the rat model of permanent focal cerebral ischaemia (MCA-O); format: in vivo, Ratte; conditions: 7 days survival, Placebo 146,69 ± 6,77
Description: Unter allgemeiner Narkose (Isofluran) wird in der Mitte zwischen Auge und Ohr ein Hautschnitt gelegt und unter Durchtrennung der darunterliegenden Muskelpartien ein Zugang zum Schädel im Bereich des Foramen ovale geschaffen. Etwa 1 mm rostrodorsal dieser Öffnung wird der Schädelkalotte durchgebohrt, die darunterliegenden Hirnhäute eröffnet, und durch Elektrokoagulation die Arteria cerebri media und deren Nebenäste permanent verschlossen. Daraufhin wird die Kaumuskulatur in ihre ursprüngliche Lage gebracht. Die Muskel- und Hautwunde wird chirurgisch verschlossen und versorgt. Nach dem Aufwachen aus der Narkose werden die Tiere in ihren Heimkäfig zurückgesetzt. Im Verlauf der folgenden Stunden entwickelt sich im Versorgungsgebiet der Arteria cerebri media ein Infarkt, dessen Ausdehnung histologisch quantifiziert wird.
Nach 7 Tagen Überlebenszeit werden die Tiere getötet, das Gehirn entnommen und in auf -30°C gekühltem 2-Methylbutan eingefroren. Mit Hilfe eines Kryostatmikrotoms werden 20 µm dicke Schnitte in 500 µm Abstand im Infarktbereich hergestellt. Nach der Cresylechtviolett-Färbung der fixierten Gehirnschnitte ist das Infarktgebiet vom nicht betroffenen Gewebe deutlich zu unterscheiden. […]

[3] = system: isolierte Aortaringe des Kaninchens; test: Inhibition of KCl-induced contraction of isolated rabbit aortic rings; format: cell-based; conditions: KCl 1 x 10^-2 mol/l; mean ± standard deviation; Nimodipin value under a comparable set-up; read-out: EC50-Wert, Inhibition der KCl-induzierten Kontraktion der Kaninchen-Aortenringe
Description: Im Allgemeinen heben Kalziumkanalantagonisten die KCl-induzierte Kontraktion isolierter Aortaringe des Kaninchens auf (vgl. Arzneim.-Forsch./Drug Res. 1992, 42, 795-797; J. Pharmacol. Exp.Ther. 1953, 108,129-143.).
Kaninchen beiderlei Geschlechts werden schmerzlos betäubt und entblutet. Der thorakale Teil der Aorta descendens wird ohne Verletzung der Endothelschicht freipräpariert und auf ca. 2 mm breite spiraienförmige Streifensegmente geschnitten und einzeln unter einer Anfangsbelastung von ca. 2 g in 10ml Carbogen-begaste Krebs-Bicarbonat-Pufferlösung (37°C) verbracht.
Kontraktionen werden isometrisch erfaßt und ausgewertet.
Die funktionelle Integrität des Endotheliums wird durch Noradrenalin (1 x 10^-8 mol/l) induzierte Kontraktionen und durch Acetylcholin (1 x 10^-8 - 1 x 10^-5 mol/l) hervorgerufene Relaxation getestet. Nach einer Auswasch- und Ruhephase sowie Erreichen eines stabilen Basalwertes (ca. nach 2 Stunden) wird mit Zugabe von 0,25 ml KCl, bei einer Endkonzenration von 1 x 10^-2 mol/l eine submaximale (60-80%) Kontraktion der Aortastreifen ausgelöst. Die Testsubstanz wird während der Plateauphase der KCl induzierten Kontraktion in die Bäder appliziert (in steigender Dosierungen: 1 x 10^-12 - 1 x 10^-5 mol/l Endkonzentration) und die Wirkung auf den kontrahierten Gefäßstreifen gemessen. […]

| SMILES | IC50 [1] [nM] | Infarktvolumen im cerebralen Cortex (Mittelwert ± S.E.M; mm^3) ([2]; i.v. infusion over 4 h directly after occlusion) | EC50 [3] [nM] | Infarktvolumen im cerebralen Cortex (Mittelwert ± S.E.M; mm^3) ([2]; 0,003 mg/kg/Std i.v. infusion over 4 h directly after occlusion) |
| --- | --- | --- | --- | --- |
| O=C1c2ccccc2S(=O)(=O)N1CCCCNCC1CCc2ccccc2O1 (single isomer, unassigned) [5-HT1A-Agonist*] | 1.6 | 104,79 ± 7,63 mm^3 | – | – |
| COCCOC(=O)C1=C(C)NC(C)=C(C(=O)OC(C)C)C1c1cccc([N+](=O)[O-])c1 (racemic) [Nimodipin, (RS)-1,4-Dihydro-2,6-dimethyl-4-(3-nitrophenyl)-3,5-pyridindicarbonsäure-isopropylester-2-methoxyethylester] | – | – | 2.9 to 4.3 | 120,87 ± 8,79 mm^3 |
| COC(=O)C1=C(C)NC(C)=C(C(=O)OC)C1c1ccccc1[N+](=O)[O-] [Nifedipin] | – | – | 3.58 | – |
